Each cell line was assayed with CC1(C)CCC(CN2CCN(c3ccc(C(=O)NS(=O)(=O)c4ccc(NCC5CCOCC5)c([N+](=O)[O-])c4)c(Oc4cnc5[nH]ccc5c4)c3)CC2)=C(c2ccc(Cl)cc2)C1 [Venetoclax] + Nc1nc2[nH]cc(CCc3ccc(C(=O)N[C@@H](CCC(=O)O)C(=O)O)cc3)c2c(=O)[nH]1 [Pemetrexed] (partner 0.2 µM) (assay: relative viability (nuclei count vs DMSO), 5 days (fraction); higher = more cells survive). Conditions: first compound 1 µM.
Procedure, shortened: (§1)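 Lung cancer cell lines were seeded in 1536-well plates and dosed by pin tool the next day, with either a single drug or a fixed anchor-drug dose combined with five library-drug doses (not always all listed) spaced in √10 steps. Five days later, one step fixed the cells and stained their nuclei (final 0.05% Triton X-100, 1% formaldehyde, 1 ug/ml Hoechst), and nuclei were counted on 4× images. Relative viability is the nuclei count in treated wells divided by the count in vehicle wells, and each value is the median of duplicate plates.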
With LOU-NH91 the relative viability was 0.337. Work on NCI-H647 yielded a relative viability of 0.178. NCI-H23 gave a relative viability of 0.588. EMC-BAC-2 was tested, and the relative viability was 0.417. For NCI-H2126, the relative viability was 0.611. With HCC-44 the relative viability was 0.656. Work on NCI-H1734 yielded a relative viability of 0.393. Cell Line NCI-H650 has a relative viability of 0.836. With LK-2 the relative viability was 0.227. NCI-H2228 gave a relative viability of 0.343. Cell Line NCI-H2342 has a relative viability of 0.717. For SK-MES-1, the relative viability was 0.754. Work on HARA yielded a relative viability of 0.284. In the case of COR-L23, the relative viability is reported as 0.197. In the case of COR-L 105, the relative viability is reported as 1.07. With LC-2-ad the relative viability was 0.259. Work on LXF-289 yielded a relative viability of 0.79. In the case of ChaGo-K-1, the relative viability is reported as 0.263. With NCI-H2170 the relative viability was 0.253. NCI-H322M was tested, and the relative viability was 0.596. For HCC-78, the relative viability was 0.881. SW 900 gave a relative viability of 0.489. With NCI-H1648 the relative viability was 0.718. Work on NCI-H1792 yielded a relative viability of 0.618. Cell Line NCI-H1395 has a relative viability of 0.819. Work on NCI-H1563 yielded a relative viability of 0.888. NCI-H1793 showed a relative viability of 0.713. NCI-H1944 gave a relative viability of 0.589. NCI-H358 gave a relative viability of 0.179.

Each cell line was assayed with Cn1cnc2c(F)c(Nc3ccc(Br)cc3Cl)c(C(=O)NOCCO)cc21 [Selumetinib] + CC(C)C[C@H](NC(=O)[C@H](Cc1ccccc1)NC(=O)c1cnccn1)B(O)O [Bortezomib] (partner 0.002 µM) in the same assay as above. Conditions: first compound 0.02 µM.
Procedure, shortened: as §1
With PC-14 the relative viability was 0.889. Work on NCI-H1666 yielded a relative viability of 0.595. In the case of EBC-1, the relative viability is reported as 0.759. For NCI-H1755, the relative viability was 0.952. NCI-H2023 showed a relative viability of 0.899. In the case of EPLC-272H, the relative viability is reported as 0.966. LCLC-97TM1 gave a relative viability of 0.522. Work on PC-3 [JPC-3] yielded a relative viability of 0.822. LOU-NH91 gave a relative viability of 0.465. Cell Line NCI-H647 has a relative viability of 0.96. NCI-H23 gave a relative viability of 1.34. With EMC-BAC-2 the relative viability was 1.06. Cell Line NCI-H2126 has a relative viability of 1.09. For Calu-6, the relative viability was 1.07. In the case of HCC-44, the relative viability is reported as 0.993. With NCI-H1734 the relative viability was 1.04. Work on NCI-H650 yielded a relative viability of 1.01. Cell Line NCI-H2228 has a relative viability of 0.923. HARA showed a relative viability of 1.03. Work on COR-L23 yielded a relative viability of 1.27. In the case of COR-L 105, the relative viability is reported as 0.813. Work on LC-2-ad yielded a relative viability of 1.05. LXF-289 showed a relative viability of 0.934. Work on ChaGo-K-1 yielded a relative viability of 0.959. NCI-H322M was tested, and the relative viability was 1.05. Cell Line IA-LM has a relative viability of 0.742. In the case of HCC-78, the relative viability is reported as 0.468. For NCI-H1299, the relative viability was 1.08. With NCI-H1792 the relative viability was 0.852. Cell Line NCI-H1703 has a relative viability of 0.309. In the case of NCI-H1563, the relative viability is reported as 0.804. ABC-1 showed a relative viability of 0.279. In the case of NCI-H727, the relative viability is reported as 0.58.

Same assay, conditions: first compound 0.06325 µM
PC-14 showed a relative viability of 0.815. For NCI-H1666, the relative viability was 0.586. For EBC-1, the relative viability was 0.625. Cell Line NCI-H1755 has a relative viability of 0.859. NCI-H2023 was tested, and the relative viability was 0.785. Cell Line EPLC-272H has a relative viability of 0.864. LCLC-97TM1 was tested, and the relative viability was 0.379. Cell Line PC-3 [JPC-3] has a relative viability of 0.813. For LOU-NH91, the relative viability was 0.479. For NCI-H647, the relative viability was 0.946. NCI-H23 showed a relative viability of 0.967. Work on EMC-BAC-2 yielded a relative viability of 1.07. Cell Line NCI-H2126 has a relative viability of 1.01. Work on Calu-6 yielded a relative viability of 0.792. For HCC-44, the relative viability was 0.882. Work on NCI-H1734 yielded a relative viability of 0.819. NCI-H650 showed a relative viability of 0.995. For NCI-H2228, the relative viability was 0.989. Work on HARA yielded a relative viability of 1.07. COR-L23 showed a relative viability of 0.939. COR-L 105 was tested, and the relative viability was 0.477. In the case of LC-2-ad, the relative viability is reported as 1.01. In the case of LXF-289, the relative viability is reported as 0.891. ChaGo-K-1 gave a relative viability of 0.993. NCI-H322M was tested, and the relative viability was 1.22. IA-LM was tested, and the relative viability was 0.497. For HCC-78, the relative viability was 0.359. NCI-H1299 gave a relative viability of 1.09. NCI-H1792 showed a relative viability of 0.789. For NCI-H1703, the relative viability was 0.255. In the case of NCI-H1563, the relative viability is reported as 0.68. Cell Line ABC-1 has a relative viability of 0.258. Cell Line NCI-H727 has a relative viability of 0.351.

Same assay, conditions: first compound 0.2 µM
Work on PC-14 yielded a relative viability of 0.926. Work on NCI-H1666 yielded a relative viability of 0.63. For EBC-1, the relative viability was 0.578. In the case of NCI-H1755, the relative viability is reported as 0.834. NCI-H2023 gave a relative viability of 0.895. In the case of EPLC-272H, the relative viability is reported as 0.779. In the case of LCLC-97TM1, the relative viability is reported as 0.294. PC-3 [JPC-3] showed a relative viability of 0.669. With LOU-NH91 the relative viability was 0.476. With NCI-H647 the relative viability was 0.901. NCI-H23 was tested, and the relative viability was 0.721. Cell Line EMC-BAC-2 has a relative viability of 1.01. NCI-H2126 gave a relative viability of 0.984. Calu-6 gave a relative viability of 0.648. Work on HCC-44 yielded a relative viability of 0.945. NCI-H1734 was tested, and the relative viability was 1.02. Cell Line NCI-H650 has a relative viability of 1.25. With NCI-H2228 the relative viability was 0.75. HARA showed a relative viability of 1.01. For COR-L23, the relative viability was 1.06. Cell Line COR-L 105 has a relative viability of 0.609. Cell Line LC-2-ad has a relative viability of 0.831. LXF-289 was tested, and the relative viability was 0.8. In the case of ChaGo-K-1, the relative viability is reported as 0.942. In the case of NCI-H322M, the relative viability is reported as 1.01. IA-LM was tested, and the relative viability was 0.304. Work on HCC-78 yielded a relative viability of 0.392. In the case of NCI-H1299, the relative viability is reported as 1.07. Work on NCI-H1792 yielded a relative viability of 0.706. NCI-H1703 gave a relative viability of 0.403. Cell Line NCI-H1563 has a relative viability of 0.726. ABC-1 gave a relative viability of 0.275. Work on NCI-H727 yielded a relative viability of 0.359.

Same assay, conditions: first compound 0.6325 µM
PC-14 was tested, and the relative viability was 0.766. Work on NCI-H1666 yielded a relative viability of 0.495. Cell Line EBC-1 has a relative viability of 0.304. Work on NCI-H1755 yielded a relative viability of 0.914. In the case of NCI-H2023, the relative viability is reported as 0.896. EPLC-272H showed a relative viability of 0.567. LCLC-97TM1 gave a relative viability of 0.157. With PC-3 [JPC-3] the relative viability was 0.551. Cell Line LOU-NH91 has a relative viability of 0.479. Cell Line NCI-H647 has a relative viability of 0.73. NCI-H23 showed a relative viability of 0.965. For EMC-BAC-2, the relative viability was 0.999. In the case of NCI-H2126, the relative viability is reported as 0.996. In the case of Calu-6, the relative viability is reported as 0.558. Cell Line HCC-44 has a relative viability of 0.971. NCI-H1734 gave a relative viability of 0.835. With NCI-H650 the relative viability was 1.17. Cell Line NCI-H2228 has a relative viability of 0.584. For HARA, the relative viability was 0.861. In the case of COR-L23, the relative viability is reported as 0.968. COR-L 105 showed a relative viability of 0.567. Work on LC-2-ad yielded a relative viability of 0.943. Work on LXF-289 yielded a relative viability of 0.748. ChaGo-K-1 gave a relative viability of 1.05. With NCI-H322M the relative viability was 0.98. With IA-LM the relative viability was 0.257.

Source: the supplement of paper PMC10307832
